Experimental data published in patent US7638648B2, “Compounds having selective cytochrome P450RAI-1 or selective cytochrome P450RAI-2 inhibitory activity and methods of obtaining the same” (Allergan Inc., priority 2003, dated 2009).

What was measured:
[1] = target: T1, P450RAI-1 (Homo sapiens, UniProt O43174); assay: P450RAI-1 cell-based inhibitor assay (inhibition of all-trans-RA metabolism); settings: P450RAI-1 stably transfected HeLa cells, [3H]-RA, 3 hours at 37° C.; read-out: P450RAI-1 Whole cell IC50
T1 construct: expressed in transfected cells; host or cells: HeLa
T1 sequence (O43174 1-497): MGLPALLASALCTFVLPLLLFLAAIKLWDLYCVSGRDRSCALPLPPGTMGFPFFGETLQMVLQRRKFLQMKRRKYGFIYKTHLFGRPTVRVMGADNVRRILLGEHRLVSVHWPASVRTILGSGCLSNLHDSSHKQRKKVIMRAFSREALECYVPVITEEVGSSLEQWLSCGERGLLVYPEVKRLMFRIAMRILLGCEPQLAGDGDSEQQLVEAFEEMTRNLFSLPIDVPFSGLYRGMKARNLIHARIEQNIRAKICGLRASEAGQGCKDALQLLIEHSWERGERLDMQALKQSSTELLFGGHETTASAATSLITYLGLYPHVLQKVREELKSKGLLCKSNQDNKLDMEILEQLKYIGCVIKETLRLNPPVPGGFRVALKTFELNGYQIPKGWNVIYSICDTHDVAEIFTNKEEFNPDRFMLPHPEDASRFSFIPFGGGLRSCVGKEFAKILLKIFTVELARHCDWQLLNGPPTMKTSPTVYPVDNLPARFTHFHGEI
Experimental: (§1) P450RAI-1 and P450RAI-2 Cell-Based Inhibitor Assay:
(§2) P450RAI-1 stably transfected HeLa cells, or P450RAI-2 stably transfected HeLa cells, as applicable, are maintained in […] tissue culture dishes in Modified Eagle's Medium (MEM) containing 10% Fetal Bovine Serum (FBS) and 100 μg/ml hygromycin. Exponentially growing cells are harvested by incubating in trypsin. Cells are then washed with 1× Phosphate Buffered Saline (PBS) and plated in a 48-well plate at 5×10^5 cells in 0.2 ml MEM medium containing 10% FBS and 0.05 μCi [^3H]—RA in the presence or absence of increasing concentrations of the test compounds. The compounds are diluted in 100% DMSO and then added in triplicate wells at either 10, 1 or 0.1 μM final concentration. As a positive control for RA metabolism inhibition, cells are also incubated with ketoconazole at 100, 10 and 1 μM. Cells are incubated for 3 hours at 37° C. The retinoids are then extracted using the procedure of Bligh et al. (1959) Canadian Journal of Biochemistry 37, 911-917, modified by using methylenechloride instead of chloroform. The publication Bligh et al. (1959) Canadian Journal of Biochemistry 37, 911-917 is specifically incorporated herein by reference. The water soluble radioactivity is quantified using a β-scintillation counter. […]

[2] = target: T2, RAR γ (Homo sapiens, UniProt P13631); assay: RARγ EC50/efficacy (Table 1); assay type: cell-based; settings: value in parentheses
T2 sequence (P13631 1-454): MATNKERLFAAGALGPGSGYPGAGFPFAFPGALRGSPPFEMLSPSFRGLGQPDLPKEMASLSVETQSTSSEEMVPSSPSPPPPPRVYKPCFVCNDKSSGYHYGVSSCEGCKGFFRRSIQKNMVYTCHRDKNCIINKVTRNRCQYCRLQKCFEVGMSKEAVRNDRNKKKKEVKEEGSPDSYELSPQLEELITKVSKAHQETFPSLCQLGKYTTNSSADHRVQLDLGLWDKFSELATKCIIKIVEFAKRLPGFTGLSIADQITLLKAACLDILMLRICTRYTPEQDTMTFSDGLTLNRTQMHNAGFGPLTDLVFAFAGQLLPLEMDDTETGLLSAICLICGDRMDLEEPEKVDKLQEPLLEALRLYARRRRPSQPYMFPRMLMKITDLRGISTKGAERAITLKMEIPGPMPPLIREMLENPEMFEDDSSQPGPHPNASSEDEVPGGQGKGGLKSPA

[3] = target: T2, RAR γ; assay: RARγ binding Kd (Table 1); settings: last item of cell
[4] = target: T3, RAR α (Homo sapiens, UniProt P10276); assay: RARα binding Kd (Table 1); settings: last item of cell
T3 sequence (P10276 1-462): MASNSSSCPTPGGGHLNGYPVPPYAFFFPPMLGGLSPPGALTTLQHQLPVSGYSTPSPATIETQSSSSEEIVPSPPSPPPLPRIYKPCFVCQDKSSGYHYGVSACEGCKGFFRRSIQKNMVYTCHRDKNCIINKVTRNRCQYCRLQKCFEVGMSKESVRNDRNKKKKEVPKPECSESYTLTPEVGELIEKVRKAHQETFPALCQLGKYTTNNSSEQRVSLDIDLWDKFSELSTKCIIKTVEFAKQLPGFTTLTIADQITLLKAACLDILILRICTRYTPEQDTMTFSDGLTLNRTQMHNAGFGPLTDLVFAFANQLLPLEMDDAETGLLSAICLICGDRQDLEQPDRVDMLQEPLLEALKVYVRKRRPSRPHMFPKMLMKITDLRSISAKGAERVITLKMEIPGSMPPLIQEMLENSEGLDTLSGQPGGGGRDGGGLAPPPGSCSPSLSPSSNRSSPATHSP

[5] = target: T4, RAR β (Homo sapiens, UniProt P10826); assay: RARβ binding Kd (Table 1); settings: last item of cell
T4 sequence (P10826 1-455): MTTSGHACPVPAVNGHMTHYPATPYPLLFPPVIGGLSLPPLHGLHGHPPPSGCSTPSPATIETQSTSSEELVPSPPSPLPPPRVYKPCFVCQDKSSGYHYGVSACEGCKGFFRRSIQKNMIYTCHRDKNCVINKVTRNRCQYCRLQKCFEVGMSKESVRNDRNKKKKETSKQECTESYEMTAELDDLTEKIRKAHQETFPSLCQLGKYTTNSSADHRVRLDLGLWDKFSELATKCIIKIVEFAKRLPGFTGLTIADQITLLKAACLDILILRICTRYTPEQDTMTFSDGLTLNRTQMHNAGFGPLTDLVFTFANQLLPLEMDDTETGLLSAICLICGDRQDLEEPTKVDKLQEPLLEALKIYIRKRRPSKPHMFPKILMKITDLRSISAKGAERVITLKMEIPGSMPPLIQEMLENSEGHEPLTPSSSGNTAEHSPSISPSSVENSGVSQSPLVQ

[6] = target: T5, P450RAI-2 (Homo sapiens, UniProt Q9NR63); assay: P450RAI-2 cell-based inhibitor assay (inhibition of all-trans-RA metabolism); settings: P450RAI-2 stably transfected HeLa cells, [3H]-RA, 3 hours at 37° C.; read-out: P450RAI-2 Whole cell IC50
T5 construct: expressed in transfected cells; host or cells: HeLa
T5 sequence (Q9NR63 1-512): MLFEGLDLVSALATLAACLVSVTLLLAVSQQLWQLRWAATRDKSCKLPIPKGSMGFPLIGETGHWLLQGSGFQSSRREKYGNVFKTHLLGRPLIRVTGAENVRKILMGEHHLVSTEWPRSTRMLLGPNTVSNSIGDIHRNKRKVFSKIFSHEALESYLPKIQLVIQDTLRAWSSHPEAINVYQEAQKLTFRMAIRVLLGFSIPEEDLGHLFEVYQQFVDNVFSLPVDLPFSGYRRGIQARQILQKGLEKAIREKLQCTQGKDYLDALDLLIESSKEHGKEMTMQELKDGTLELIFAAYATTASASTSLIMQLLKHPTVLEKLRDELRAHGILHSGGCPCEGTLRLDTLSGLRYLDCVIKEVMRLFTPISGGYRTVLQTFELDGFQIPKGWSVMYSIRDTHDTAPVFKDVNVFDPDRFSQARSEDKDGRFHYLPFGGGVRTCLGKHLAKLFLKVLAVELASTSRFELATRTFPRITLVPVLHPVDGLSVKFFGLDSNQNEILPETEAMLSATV
Experimental: as §1, §2

SMILES: CC(C)c1cc(C(=O)Oc2ccc(/C=C/C(=O)O)cc2)cc2c1OC(C)(C)CC2(C)C [Compound 16, 8-Isopropyl-2,2,4,4-tetramethyl-chroman-6-carboxylic acid 4-(2-carboxy-vinyl)-phenyl ester]
- IC50 [1]: 1.3 µM

SMILES: C=Cc1c(C)c(C#Cc2ccc(CC(=O)O)cc2)cc(C(C)(C)C)c1OC(C)C [Compound 46, [4-(5-tert-Butyl-4-isopropoxy-2-methyl-3-vinyl-phenylethynyl)-phenyl]-acetic acid]
- RAR γ (EFFICACY) [2]: 68

SMILES: CN(C1CC1)C1CCC(C)(C)c2cc(C#Cc3ccc(/C=C/C(=O)O)cc3)cc(C3CC3)c21 (stereo not drawn) [Compound 48, 3-{4-[4-Cyclopropyl-5-(cyclopropyl-methyl-amino)-8,8-dimethyl-5,6,7,8-tetrahydro-naphthalen-2-ylethynyl]-phenyl}-acrylic acid]
- Kd [3]: > 10 µM
- Kd [4]: > 10 µM
- Kd [5]: > 10 µM

SMILES: CC(C(=O)O)c1ccc(C#Cc2cc(C3CC3)c3c(c2)C(C)(C)CCC3N(C)C2CC2)cc1 (stereo not drawn) [Compound 49, 2-{4-[4-Cyclopropyl-5-(cyclopropyl-methyl-amino)-8,8-dimethyl-5,6,7,8-tetrahydro-naphthalen-2-ylethynyl]-phenyl}-propionic acid]
- IC50 [6]: > 10 µM
